This note sets out measurements from patent publication US8877769B2, “Heteroaryl-substituted urea modulators of fatty acid amide hydrolase” (Janssen Pharmaceutica NV, priority 2008, dated 2014).

Where only a bound is given, the exact number is not on record here.

One experiment deals with T1, Rat FAAH (Rattus norvegicus, UniProt P97612).
T1 construct: expressed in transfected cells
T1 sequence (P97612 1-579): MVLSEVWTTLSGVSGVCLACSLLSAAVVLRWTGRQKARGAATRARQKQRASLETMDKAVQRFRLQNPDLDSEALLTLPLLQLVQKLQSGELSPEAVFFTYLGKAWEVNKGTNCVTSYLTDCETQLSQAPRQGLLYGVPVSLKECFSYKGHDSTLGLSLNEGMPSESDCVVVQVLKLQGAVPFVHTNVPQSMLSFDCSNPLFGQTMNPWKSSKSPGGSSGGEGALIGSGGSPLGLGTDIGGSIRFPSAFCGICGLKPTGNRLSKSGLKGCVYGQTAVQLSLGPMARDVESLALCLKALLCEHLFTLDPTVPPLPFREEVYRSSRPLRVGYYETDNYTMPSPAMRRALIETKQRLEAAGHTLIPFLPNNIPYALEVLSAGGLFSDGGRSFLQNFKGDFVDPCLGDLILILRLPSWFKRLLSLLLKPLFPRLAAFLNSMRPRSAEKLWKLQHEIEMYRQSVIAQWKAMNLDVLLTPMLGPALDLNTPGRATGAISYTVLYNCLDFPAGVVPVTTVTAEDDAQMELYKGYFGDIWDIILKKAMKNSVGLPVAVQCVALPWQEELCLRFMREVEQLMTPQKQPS
As to the kind of experiment: Assay Method 2: FAAH assay, 3H-anandamide hydrolysis in cell homogenate. Conditions: average of results obtained, > value = solubility limit or highest concentration tested. The format is biochemical. As for the experimental part:
A. Transfection of Cells with Rat FAAH
The assay mixture consisted of 50 μL of the cell homogenate, 10 μL of the test compound, and 40 μL of anandamide [1-^3H-ethanolamine] (^3H-AEA, Perkin-Elmer, 10.3 Ci/mmol), which was added last, for a final tracer concentration of 80 nM. The reaction mixture was incubated at rt for 1 h. During the incubation, 96-well Multiscreen filter plates (catalog number MAFCNOB50; Millipore, Bedford, Mass., USA) were loaded with 25 μL of activated charcoal (Multiscreen column loader, catalog number MACL09625, Millipore) and washed once with 100 μL of MeOH. […] After the 1 h incubation, 60 μL of the reaction mixture were transferred to the charcoal plates, which were then assembled on top of the DYNEX plates using Centrifuge Alignment Frames (catalog number MACF09604, Millipore). The unbound labeled ethanolamine was centrifuged through to the bottom plate (5 min at 2000 rpm), which was preloaded with the scintillant, as described above. The plates were sealed and left at rt for 1 h before counting on a Hewlett Packard TopCount.

A further experiment addresses T2, FAAH (Homo sapiens, UniProt O00519).
T2 sequence (O00519 1-579): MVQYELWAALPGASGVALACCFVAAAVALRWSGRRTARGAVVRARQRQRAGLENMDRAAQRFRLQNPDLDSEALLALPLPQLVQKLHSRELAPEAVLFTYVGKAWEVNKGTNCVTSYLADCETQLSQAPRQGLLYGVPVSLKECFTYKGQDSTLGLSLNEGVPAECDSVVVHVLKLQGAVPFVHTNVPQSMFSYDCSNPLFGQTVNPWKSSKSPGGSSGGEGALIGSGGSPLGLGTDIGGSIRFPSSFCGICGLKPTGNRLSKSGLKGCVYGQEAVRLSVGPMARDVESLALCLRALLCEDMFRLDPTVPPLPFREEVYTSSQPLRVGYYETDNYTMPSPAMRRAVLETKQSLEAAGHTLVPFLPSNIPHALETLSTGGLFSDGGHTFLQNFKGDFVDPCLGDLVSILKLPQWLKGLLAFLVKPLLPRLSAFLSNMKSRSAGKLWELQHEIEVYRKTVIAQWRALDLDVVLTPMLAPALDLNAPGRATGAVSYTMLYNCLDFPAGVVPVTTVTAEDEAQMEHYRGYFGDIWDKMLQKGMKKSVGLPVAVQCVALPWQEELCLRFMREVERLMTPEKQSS
The experiment can be described thus: Assay Method 1: FAAH assay, 3H-anandamide hydrolysis in cell homogenate.

Broadly, the IC50 is the concentration needed to halve the response being measured. Read a low IC50 as higher potency. Turning to `O=C(Nc1cnc2cccnn12)N1CCN(Cc2cccc(Oc3ccc(Cl)cc3)c2)CC1` [Example 1, 4-[3-(4-Chloro-phenoxy)-benzyl]-piperazine-1-carboxylic acid imidazo[1,2-b]pyridazin-3-ylamide], on Rat FAAH, it took 16 nM to reach half-maximal inhibition (IC50). Turning to `O=C(Nc1cnc2cccnn12)N1CCN(Cc2ccc(Cl)c(Cl)c2)CC1` [Example 2, 4-(3,4-Dichloro-benzyl)-piperazine-1-carboxylic acid imidazo[1,2-b]pyridazin-3-ylamide], the IC50 on FAAH was 62 nM; against Rat FAAH, 110 nM. In the case of `O=C(Nc1cnc2cccnn12)N1CCN(Cc2ccc3c(c2)OC(F)(F)O3)CC1` [Example 3, 4-(2,2-Difluoro-benzo[1,3]dioxol-5-ylmethyl)-piperazine-1-carboxylic acid imidazo[1,2-b]pyridazin-3-ylamide], the IC50 at FAAH stood at 230 nM; at Rat FAAH it was 160 nM.

As to `O=C(Nc1cnc2cccnn12)N1CCN(Cc2ccc(OC(F)(F)F)c(Cl)c2)CC1` [Example 4, 4-(3-Chloro-4-trifluoromethoxy-benzyl)-piperazine-1-carboxylic acid imidazo[1,2-b]pyridazin-3-ylamide], the values for the IC50 against FAAH and against Rat FAAH were 54 nM and 30 nM, respectively. The matching figures for `O=C(Nc1noc2ncccc12)N1CCN(Cc2ccc3c(c2)OC(F)(F)O3)CC1` [Example 5, 4-(2,2-Difluoro-benzo[1,3]dioxol-5-ylmethyl)-piperazine-1-carboxylic acid isoxazolo[5,4-b]pyridin-3-ylamide]: 1600 nM and 8000 nM. As to `O=C(Nc1noc2ncccc12)N1CCN(Cc2ccc(Br)c(F)c2)CC1` [Example 6, 4-(4-Bromo-3-fluoro-benzyl)-piperazine-1-carboxylic acid isoxazolo[5,4-b]pyridin-3-ylamide], the IC50 at Rat FAAH was above 10000 nM.

Regarding `O=C(Nc1noc2ncccc12)N1CCN(Cc2ccc3c(c2)OCO3)CC1` [Example 7, 4-Benzo[1,3]dioxol-5-ylmethyl-piperazine-1-carboxylic acid isoxazolo[5,4-b]pyridin-3-ylamide], the IC50 against FAAH and against Rat FAAH was above 10000 nM in each case. In the case of `O=C(Nc1noc2ncccc12)N1CCN(Cc2cccc(Oc3ccccc3Cl)c2)CC1` [Example 8, 4-[3-(2-Chloro-phenoxy)-benzyl]-piperazine-1-carboxylic acid isoxazolo[5,4-b]pyridin-3-ylamide], the results for the IC50 at FAAH and against Rat FAAH were 1500 nM and 8000 nM, respectively. `O=C(Nc1noc2ncccc12)N1CCN(Cc2ccc3cc[nH]c3c2)CC1` [Example 9]: the IC50 at FAAH and against Rat FAAH was above 10000 nM in each case. In the case of `O=C(Nc1noc2ncccc12)N1CCN(Cc2cccc(Oc3ccc(Cl)cc3)c2)CC1` [Example 20, 4-[3-(4-Chloro-phenoxy)-benzyl]-piperazine-1-carboxylic acid isoxazolo[5,4-b]pyridin-3-ylamide], half-maximal inhibition against Rat FAAH (IC50) required 7 nM.

On FAAH, `O=C(Nc1noc2ncccc12)N1CCN(Cc2ccc3ccccc3c2)CC1` [Example 29, 4-Naphthalen-2-ylmethyl-piperazine-1-carboxylic acid isoxazolo[5,4-b]pyridin-3-ylamide] displayed an IC50 of 370 nM. Compound `O=C(Nc1noc2ccncc12)N1CCN(Cc2cccc(Oc3ccc(Cl)cc3)c2)CC1` [Example 40, 4-[3-(4-Chloro-phenoxy)-benzyl]-piperazine-1-carboxylic acid isoxazolo[4,5-c]pyridin-3-ylamide] registered an IC50 on Rat FAAH of 40 nM. The same measure, in the same setting: for `O=C(Nc1noc2cccnc12)N1CCN(Cc2cccc(Oc3ccc(Cl)cc3)c2)CC1` [Example 41, 4-[3-(4-Chloro-phenoxy)-benzyl]-piperazine-1-carboxylic acid isoxazolo[4,5-b]pyridin-3-ylamide] the value was 17 nM; for `O=C(Nc1cccc2cn[nH]c12)N1CCN(Cc2cccc(Oc3ccc(Cl)cc3)c2)CC1` [Example 48, 4-[3-(4-Chloro-phenoxy)-benzyl]-piperazine-1-carboxylic acid (1H-indazol-7-yl)-amide], 3000 nM.

The compound `O=C(Nc1cccc2cn[nH]c12)N1CCN(Cc2ccc3c(c2)OC(F)(F)O3)CC1` [Example 49, 4-(2,2-Difluoro-benzo[1,3]dioxol-5-ylmethyl)-piperazine-1-carboxylic acid (1H-indazol-7-yl)-amide] showed an IC50 at FAAH above 10000 nM. Compound `O=C(Nc1ccc2nccn2c1)N1CCN(Cc2cccc(Oc3ccc(Cl)cc3)c2)CC1` [Example 50, 4-[3-(4-Chloro-phenoxy)-benzyl]-piperazine-1-carboxylic acid imidazo[1,2-a]pyridin-6-ylamide] showed an IC50 against Rat FAAH of 1200 nM. With `O=C(Nc1cnc2ccccn12)N1CCN(Cc2cccc(Oc3ccc(Cl)cc3)c2)CC1` [Example 57, 4-[3-(4-Chloro-phenoxy)-benzyl]-piperazine-1-carboxylic acid imidazo[1,2-a]pyridin-3-ylamide], at Rat FAAH, the IC50 stood at 98 nM. Consider `O=C(Nc1cnc2ccccn12)N1CCN(Cc2ccc3c(c2)OC(F)(F)O3)CC1` [Example 58, 4-(2,2-Difluoro-benzo[1,3]dioxol-5-ylmethyl)-piperazine-1-carboxylic acid imidazo[1,2-a]pyridin-3-ylamide], for which, on Rat FAAH, the IC50 amounted to 2000 nM. For the compound `O=C(Nc1cnc2[nH]ccc2c1)N1CCN(Cc2cccc(Oc3ccc(Cl)cc3)c2)CC1` [Example 60, 4-[3-(4-Chloro-phenoxy)-benzyl]-piperazine-1-carboxylic acid (1H-pyrrolo[2,3-b]pyridin-5-yl)-amide], the IC50 on Rat FAAH turned out to be 16 nM.

Take `Cc1nc2cc(NC(=O)N3CCN(Cc4cccc(Oc5ccc(Cl)cc5)c4)CC3)ccc2o1` [Example 63, 4-[3-(4-Chloro-phenoxy)-benzyl]-piperazine-1-carboxylic acid (2-methyl-benzooxazol-5-yl)-amide]: on Rat FAAH, the IC50 worked out at 120 nM. `O=C(Nc1nc2ccccc2o1)N1CCN(Cc2cccc(Oc3ccc(Cl)cc3)c2)CC1` [Example 66, 4-[3-(4-Chloro-phenoxy)-benzyl]-piperazine-1-carboxylic acid benzooxazol-2-ylamide]: the IC50 against FAAH was 880 nM. In the case of `O=C(Nc1cccc2nccn12)N1CCN(Cc2cccc(Oc3ccc(Cl)cc3)c2)CC1` [Example 69, 4-[3-(4-Chloro-phenoxy)-benzyl]-piperazine-1-carboxylic acid imidazo[1,2-a]pyridin-5-ylamide], half-maximal inhibition against Rat FAAH (IC50) required 6 nM. Same read-out and setting: the same measure for `O=C(Nc1ccn2ccnc2c1)N1CCN(Cc2cccc(Oc3ccc(Cl)cc3)c2)CC1` [Example 72, 4-[3-(4-Chloro-phenoxy)-benzyl]-piperazine-1-carboxylic acid imidazo[1,2-a]pyridin-7-ylamide]: 660 nM; for `O=C(Nc1cc2nccn2cn1)N1CCN(Cc2cccc(Oc3ccc(Cl)cc3)c2)CC1` [Example 74, 4-[3-(4-Chloro-phenoxy)-benzyl]-piperazine-1-carboxylic acid imidazo[1,2-c]pyrimidin-7-ylamide]: 500 nM. On the same count and under the same terms, for `O=C(Nc1ccn2ccnc2n1)N1CCN(Cc2cccc(Oc3ccc(Cl)cc3)c2)CC1` [Example 75, 4-[3-(4-Chloro-phenoxy)-benzyl]-piperazine-1-carboxylic acid imidazo[1,2-a]pyrimidin-7-ylamide] the value was 830 nM; for `O=C(Nc1ccnc2nccn12)N1CCN(Cc2cccc(Oc3ccc(Cl)cc3)c2)CC1` [Example 76, 4-[3-(4-Chloro-phenoxy)-benzyl]-piperazine-1-carboxylic acid imidazo[1,2-a]pyrimidin-5-ylamide], 31 nM. On to `O=C(Nc1nocc1Cl)N1CCN(Cc2cccc(Oc3ccc(Cl)cc3)c2)CC1` [Example 85, 4-[3-(4-Chloro-phenoxy)-benzyl]-piperazine-1-carboxylic acid (4-chloro-isoxazol-3-yl)-amide], for which, on Rat FAAH, half-maximal inhibition (IC50) was put at 22 nM.
